In patent US20260200920A1, “SUBSTITUTED AMINOPYRIDINE COMPOUNDS FOR USE AS AKT1 INHIBITORS” (Atavistik Bio, Inc., priority 2023, published 2026):

Key:
[1] = biological target: T1, human recombinant kinase full-length AKT1 E17K (Homo sapiens, UniProt P31749, E17K); test: AKT1 E17K kinase assay (TR-FRET, Lance); assay type: biochemical; conditions: 0.6 nM AKT1 E17K, 50 nM Ulight-CREBtide, either 50 μM ATP or 2 mM ATP, 60 min at RT
T1 construct: Purified human recombinant kinase full-length AKT1 E17K was expressed in insect cells; made in house; host or cells: insect cells
Method in brief: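 Full-length AKT1 E17K from insect cells, PDPK1-activated, at 0.6 nM with 50 nM Ulight-CREBtide and 50 μM or 2 mM ATP, pH 7.5, 1% DMSO. Enzyme and compound preincubated 15 min, reaction run 60 min at RT; Eu-anti-phospho-CREB (Ser133) TR-FRET 665/620 ratio, 10-point curve, IC50 by 4-parameter fit.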

[2] = biological target: T2, human recombinant kinase full-length wildtype AKT1 (Homo sapiens, UniProt P31749); test: AKT1 kinase assay (wildtype, TR-FRET, Lance); assay type: biochemical; conditions: 0.6 nM wildtype AKT1, 50 nM Ulight-CREBtide, either 50 μM ATP or 2 mM ATP, 60 min at RT
T2 construct: Purified human recombinant kinase full-length wildtype AKT1 was expressed in insect cells; made in house; host or cells: insect cells
Method in brief: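 Insect-cell-expressed full-length human AKT1, PDPK1-activated (0.6 nM), preincubated with compound 15 min at RT, then reacted 60 min at RT with 50 nM ULight-CREBtide and 50 μM or 2 mM ATP (pH 7.5, 1% DMSO). Phospho-CREBtide read by Eu-anti-phospho-Ser133 TR-FRET (665/620 ratio); IC50 from 10-point 4-parameter fit.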

T2 sequence (P31749 whole entry): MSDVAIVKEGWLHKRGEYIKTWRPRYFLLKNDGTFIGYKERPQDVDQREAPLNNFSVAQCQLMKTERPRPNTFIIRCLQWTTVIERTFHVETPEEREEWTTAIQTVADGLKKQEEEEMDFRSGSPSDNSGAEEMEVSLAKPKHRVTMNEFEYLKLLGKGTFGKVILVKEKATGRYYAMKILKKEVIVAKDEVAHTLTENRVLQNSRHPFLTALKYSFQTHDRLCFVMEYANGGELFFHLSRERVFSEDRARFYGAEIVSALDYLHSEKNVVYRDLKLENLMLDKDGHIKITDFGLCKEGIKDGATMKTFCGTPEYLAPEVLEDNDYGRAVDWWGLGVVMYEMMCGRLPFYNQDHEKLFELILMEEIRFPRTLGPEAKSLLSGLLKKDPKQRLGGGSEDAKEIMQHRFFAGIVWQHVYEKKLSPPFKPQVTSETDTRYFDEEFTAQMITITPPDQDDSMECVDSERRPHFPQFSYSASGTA
T1 sequence (P31749 whole entry E17K): as the sequence (P31749 whole entry) above, with E17K counted along it

SMILES	IC50 [1] [nM]	IC50 [2] [nM]
Nc1ncccc1-c1nc2ccc(-n3cccn3)cc2n1-c1ccc(C2CN(C[C@H]3CC[C@H](C(=O)O)CC3)C2)cc1 [Compound I-72, (1r,4r)-4-((3-(4-(2-(2-aminopyridin-3-yl)-6-(1H-pyrazol-1-yl)-1H-benzo[d]imidazol-1-yl)phenyl)azetidin-1-yl)methyl)cyclohexane-1-carboxylic acid]	≥ 2000	< 20000
Nc1ncccc1-c1nc2ccc(-c3ccccc3)nc2n1-c1ccc(NC(=O)[C@H]2CC[C@H](C(=O)O)CC2)nc1 [Compound I-10, (1r,4r)-4-((5-(2-(2-aminopyridin-3-yl)-5-phenyl-3H-imidazo[4,5-b]pyridin-3-yl)pyridin-2-yl)carbamoyl)cyclohexane-1-carboxylic acid]	< 500	< 20000
Cn1nccc1-c1ccc2nc(-c3cccnc3N)n(-c3ccc(NC(=O)[C@H]4CC[C@H](C(=O)O)CC4)nc3)c2n1 [Compound I-116, (1r,4r)-4-((5-(2-(2-aminopyridin-3-yl)-5-(1-methyl-1H-pyrazol-5-yl)-3H-imidazo[4,5-b]pyridin-3-yl)pyridin-2-yl)carbamoyl)cyclohexane-1-carboxylic acid]	500 to 2000	< 20000
Nc1ncccc1-c1nc2ccc(-c3ccccc3)nc2n1-c1ccc(C(=O)N2CCCC(C(=O)O)C2)cc1 (centres unmarked) [Compound I-21, 1-(4-(2-(2-aminopyridin-3-yl)-5-phenyl-3H-imidazo[4,5-b]pyridin-3-yl)benzoyl)piperidine-3-carboxylic acid]	≥ 2000	< 20000
Nc1ncccc1-c1nc2ccc(-c3ccccc3)nc2n1-c1ccc(CN[C@H]2CC[C@@H](C(=O)O)CC2)cc1 [Compound I-91, (1s,4s)-4-((4-(2-(2-aminopyridin-3-yl)-5-phenyl-3H-imidazo[4,5-b]pyridin-3-yl)benzyl)amino)cyclohexane-1-carboxylic acid]	< 500	< 20000
CC(C(=O)O)C1CCN(c2ccc(-n3c(-c4cccnc4N)nc4ccc(-c5ccccc5)nc43)cn2)C1 (centres unmarked) [Compound I-26, 2-(1-(5-(2-(2-aminopyridin-3-yl)-5-phenyl-3H-imidazo[4,5-b]pyridin-3-yl)pyridin-2-yl)pyrrolidin-3-yl)propanoic acid]	≥ 2000	< 20000
CNC(=O)[C@H]1CC[C@H](C(=O)Nc2ccc(-n3c(-c4cccnc4N)nc4ccc(-c5ccccc5)nc43)c(C)n2)CC1 [Compound I-141, (1r,4r)-N1-(5-(2-(2-aminopyridin-3-yl)-5-phenyl-3H-imidazo[4,5-b]pyridin-3-yl)-6-methylpyridin-2-yl)-N4-methylcyclohexane-1,4-dicarboxamide]	500 to 2000	< 20000
CC(C)N(Cc1ccc(-n2c(-c3cccnc3N)nc3ccc(-c4ccccc4)nc32)cc1)[C@H]1CC[C@H](C(=O)O)CC1 [Compound I-168]	≥ 2000	< 20000
Cc1cc(C2CN(CC3CC4CC(C(=O)O)CC4C3)C2)ccc1-n1c(-c2cccnc2N)nc2ccc(-c3ccccc3F)nc21 (centres unmarked) [Compound I-201]	< 500	< 20000
Nc1ncccc1-c1nc2ccc(-c3ccccc3)nc2n1-c1ccc(NC(=O)[C@H]2CC[C@H](C(=O)O)CC2)cc1 [Compound I-2]	< 500	< 20000
Nc1ncccc1-c1nc2ccc(-c3ccccc3)nc2n1-c1ccc(NC(=O)N2CCC(C(=O)O)CC2)cc1 [Compound I-53, 1-[[4-[2-(2-amino-3-pyridyl)-5-phenyl-imidazo[4,5-b]pyridin-3-yl]phenyl]carbamoyl]piperidine-4-carboxylic acid]	< 500	< 20000
Nc1ncccc1-c1nc2ccc(-n3cccn3)nc2n1-c1ccc(NC(=O)[C@H]2CC[C@H](C(=O)O)CC2)nc1 [Compound I-41, (1r,4r)-4-((5-(2-(2-aminopyridin-3-yl)-5-(1H-pyrazol-1-yl)-3H-imidazo[4,5-b]pyridin-3-yl)pyridin-2-yl)carbamoyl)cyclohexane-1-carboxylic acid]	< 500	< 20000
CC(C)(C(=O)O)C1CCN(Cc2ccc(-n3c(-c4cccnc4N)nc4ccc(-c5ccccc5)nc43)c(F)c2)C1 (centres unmarked) [Compound I-185]	500 to 2000	< 20000
Cc1nc(NC(=O)[C@H]2CC[C@H](C(=O)O)CC2)ccc1-n1c(-c2cccnc2N)nc2ccc(-c3cccc(F)c3F)nc21 [Compound I-219]	500 to 2000	< 20000
C[C@H]([C@H]1CC[C@H](C(=O)O)CC1)N1CC(c2ccc(-n3c(-c4cccnc4N)nc4ccc(-c5ccccc5)nc43)cc2)C1 [Compound I-59, (1R,4r)-4-((R)-1-(3-(4-(2-(2-aminopyridin-3-yl)-5-phenyl-3H-imidazo[4,5-b]pyridin-3-yl)phenyl)azetidin-1-yl)ethyl)cyclohexane-1-carboxylic acid]	< 500	< 20000
Cc1cc(C2CN(C[C@H]3CC[C@@H](C(=O)O)CC3)C2)ccc1-n1c(-c2cccnc2N)nc2ccc(-c3ccccc3)nc21 [Compound I-205]	500 to 2000	< 20000
Nc1ncccc1-c1nc2ccc(-c3ccccc3)nc2n1-c1ccc(C2CCN(CC34CCC(C(=O)O)(CC3)CC4)CC2)cc1 [Compound I-195]	500 to 2000	< 20000
CC(C)CN(Cc1ccc(-n2c(-c3cccnc3N)nc3ccc(-c4ccccc4)nc32)cc1)[C@H]1CC[C@H](C(=O)O)CC1 [Compound I-166]	≥ 2000	< 20000
Nc1ncccc1-c1nc2ccc(-c3ccccc3)nc2n1-c1ccc(N[C@H]2CC[C@H](C(=O)O)CC2)nc1 (single isomer, unassigned) [Compound I-14, (1r,4r)-4-((5-(2-(2-aminopyridin-3-yl)-5-phenyl-3H-imidazo[4,5-b]pyridin-3-yl)pyridin-2-yl)amino)cyclohexane-1-carboxylic acid]	≥ 2000	< 20000
Nc1ncccc1-c1nc2ccc(-c3ccccc3F)nc2n1-c1ccc([C@@H]2CCN(C[C@H]3CC[C@@H](C(=O)O)CC3)C2)cc1 (single isomer, unassigned) [Compound I-229]	500 to 2000	< 20000
Nc1ncccc1-c1nc2ccc(-c3ccccc3)nc2n1-c1ccc(C(=O)N[C@H]2CC[C@@H](C(=O)O)CC2)nc1 [Compound I-18, (1s,4s)-4-(5-(2-(2-aminopyridin-3-yl)-5-phenyl-3H-imidazo[4,5-b]pyridin-3-yl)picolinamido)cyclohexane-1-carboxylic acid]	≥ 2000	< 20000
Cc1ccccc1-c1ccc2nc(-c3cccnc3N)n(-c3ccc(C4CN(C[C@H]5CC[C@H](C(=O)O)CC5)C4)cc3C)c2n1 [Compound I-211]	≥ 2000	< 20000
Nc1ncccc1-c1nc2ccc(-c3ccccc3)nc2n1-c1ccc(C2CN(CC34CCC(C(=O)O)(CC3)CC4)C2)cc1 [Compound I-146]	< 500	< 20000
Nc1ncccc1-c1nc2cc(-c3ccccc3)cnc2n1-c1ccc(C2CN(C[C@H]3CC[C@H](C(=O)O)CC3)C2)cc1 [Compound I-65, (1r,4r)-4-((3-(4-(2-(2-aminopyridin-3-yl)-6-phenyl-3H-imidazo[4,5-b]pyridin-3-yl)phenyl)azetidin-1-yl)methyl)cyclohexane-1-carboxylic acid]	≥ 2000	< 20000
Nc1ncccc1-c1nc2ccc(-c3ccccc3)nc2n1-c1ccc(C2CN(CC3CCC(CC(=O)O)CC3)C2)cc1 (centres unmarked) [Compound I-153]	< 500	< 20000
